Columns and labels:
Histone deacetylase 1 = Histone deacetylase 1 (Homo sapiens, UniProt Q13547); experiment: biochemical; format: cell-based
Description: Inhibition of recombinant His6/GST-tagged human HDAC1 expressed in baculovirus infected High5 insect cells using Ac-Lys-Tyr-Lys(epsilon-acetyl)-AMC as substrate after 24 hrs by fluorescence based assay

[1] = target: NAD-dependent protein deacetylase sirtuin-3, mitochondrial (Homo sapiens, UniProt Q9NTG7)
Description: Inhibition of recombinant human N-terminal His-tagged SIRT3 expressed in Escherichia coli using Ac-Arg-His-Lys-Lys(Ac)-AMC as susbtrate after 2 hrs by fluorescence based assay

HT-29 [2] = format: functional, Homo sapiens; settings: at 50 mg/kg
Description: Antitumor activity against human HT-29 cells xenografted in nude mouse assessed as reduction in tumor growth at 50 mg/kg, po qd for 21 days relative to control

[3] = target: NAD-dependent protein deacetylase sirtuin-2 (Homo sapiens, UniProt Q8IXJ6)
Description: Inhibition of recombinant human N-terminal GST-tagged SIRT2 expressed in Escherichia coli using Ac-Arg-His-Lys-Lys(Ac)-AMC as susbtrate after 2 hrs by fluorescence based assay

MCF7 = experiment: cells; format: functional, cell-based; settings: Homo sapiens, MCF7, 72 h
Description: Antiproliferative activity against human MCF7 cells assessed as reduction in cell growth after 72 hrs

[4] = target: NAD-dependent protein deacetylase sirtuin-1 (Homo sapiens, UniProt Q96EB6)
Sequence of NAD-dependent protein deacetylase sirtuin-1 (Q96EB6 whole entry): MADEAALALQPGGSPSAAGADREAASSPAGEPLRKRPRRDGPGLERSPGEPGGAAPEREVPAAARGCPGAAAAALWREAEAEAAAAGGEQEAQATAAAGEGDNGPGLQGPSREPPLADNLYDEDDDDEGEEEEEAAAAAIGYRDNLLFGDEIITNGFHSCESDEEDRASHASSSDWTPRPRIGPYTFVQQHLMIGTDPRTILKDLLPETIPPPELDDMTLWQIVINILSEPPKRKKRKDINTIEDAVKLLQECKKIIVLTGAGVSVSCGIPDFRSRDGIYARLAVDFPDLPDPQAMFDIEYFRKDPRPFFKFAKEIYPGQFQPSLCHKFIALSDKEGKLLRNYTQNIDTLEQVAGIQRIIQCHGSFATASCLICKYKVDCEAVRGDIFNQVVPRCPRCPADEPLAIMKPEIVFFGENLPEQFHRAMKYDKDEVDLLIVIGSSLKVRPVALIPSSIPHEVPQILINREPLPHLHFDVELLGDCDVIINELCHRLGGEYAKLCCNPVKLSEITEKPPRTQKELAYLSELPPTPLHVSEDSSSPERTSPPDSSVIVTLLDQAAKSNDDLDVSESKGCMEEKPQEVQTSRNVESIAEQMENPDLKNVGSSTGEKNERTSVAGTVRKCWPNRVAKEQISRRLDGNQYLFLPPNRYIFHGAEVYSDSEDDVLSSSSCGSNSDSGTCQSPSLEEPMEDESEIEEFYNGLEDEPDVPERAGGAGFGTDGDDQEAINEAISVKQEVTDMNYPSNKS
Description: Inhibition of recombinant human N-terminal GST-tagged SIRT1 expressed in Escherichia coli using Ac-Arg-His-Lys-Lys(Ac)-AMC as susbtrate after 1 hr by fluorescence based assay

[5] = mouse, in vivo, po, 50 mg/kg, 1 h
[6] = mouse, in vivo
[7] = dog, hepatocytes, 3 h, 3 µM
Bel-7402 = experiment: cells; format: functional, cell-based; settings: Homo sapiens, Bel-7402, 72 h
Description: Antiproliferative activity against human Bel7402 cells assessed as reduction in cell growth after 72 hrs

in vivo [8] = settings: ICR, mouse, po, 5 mg/kg
Description: Half life in ICR mouse at 5 mg/kg, po measured up to 24 hrs by LC-MS analysis

[9] = mouse, in vivo, po, 50 mg/kg, 1 h; remark: listed apart in the source
[10] = mouse, in vivo; remark: listed apart in the source
Histone deacetylase 9 = Histone deacetylase 9 (Homo sapiens, UniProt Q9UKV0); experiment: biochemical; format: cell-based, Sf9
[11] = mouse, hepatocytes, 3 h, 3 µM
in vivo [12] = settings: ICR, mouse, other tissue
[13] = mouse, in vivo; remark: listed apart in the source
[14] = dog, hepatocytes, 3 h, 3 µM; remark: listed apart in the source
[15] = mouse, hepatocytes, 3 h, 3 µM; remark: listed apart in the source
in vivo [16] = settings: female, ICR, mouse, other tissue
in vivo [17] = settings: ICR, mouse, po, 5 mg/kg; remark: listed apart in the source
[18] = mouse, hepatocytes, 3 h, 3 µM; remark: listed apart in the source
HT-29 [19] = experiment: cells; format: functional, cell-based; settings: Homo sapiens, HT-29, 72 h
Description: Antiproliferative activity against human HT-29 cells assessed as reduction in cell growth after 72 hrs

[20] = mouse, in vivo, iv, 10 mg/kg
in vivo [21] = settings: male, ICR, mouse, other tissue
[22] = mouse, in vivo; remark: listed apart in the source
in vivo [23] = settings: ICR, mouse, iv, 2 mg/kg
EBC-1 = experiment: cells; format: functional, cell-based; settings: Homo sapiens, EBC-1, 72 h
Description: Antiproliferative activity against human EBC1 cells assessed as reduction in cell growth after 72 hrs

[24] = mouse, in vivo, po, 50 mg/kg, 1 h; remark: listed apart in the source
[25] = mouse, in vivo; remark: listed apart in the source
[26] = cynomolgus monkey, hepatocytes, 3 h, 3 µM
in vivo [27] = settings: female, ICR, mouse, other tissue; remark: listed apart in the source
HT-29 [28] = format: functional, Homo sapiens; settings: at 100 mg/kg
Description: Antitumor activity against human HT-29 cells xenografted in nude mouse assessed as reduction in tumor growth at 100 mg/kg, po qd for 21 days relative to control

[29] = mouse, in vivo; remark: listed apart in the source
[30] = mouse, in vivo, po, 50 mg/kg, 6 h
Histone deacetylase 11 = Histone deacetylase 11 (Homo sapiens, UniProt Q96DB2); experiment: biochemical; format: cell-based
Description: Inhibition of recombinant human His6/GST-tagged HDAC11 expressed in baculovirus infected High5 insect cells using Ac-Lys-Tyr-Lys(epsilon-acetyl)-AMC as susbtrate after 24 hrs by fluorescence based assay

[31] = cynomolgus monkey, hepatocytes, 3 h, 3 µM; remark: listed apart in the source
[32] = mouse, in vivo; remark: listed apart in the source
in vivo [33] = settings: ICR, mouse, iv, 2 mg/kg; remark: listed apart in the source
[34] = cynomolgus monkey, hepatocytes, 3 h, 3 µM; remark: listed apart in the source
[35] = human, hepatocytes, 3 h, 3 µM
HT-29 [36] = format: functional, Homo sapiens; settings: at 25 mg/kg
Description: Antitumor activity against human HT-29 cells xenografted in nude mouse assessed as reduction in tumor growth at 25 mg/kg, po qd for 21 days relative to control

[37] = mouse, in vivo, po, 50 mg/kg, 1 h; remark: listed apart in the source
Histone deacetylase 2 = Histone deacetylase 2 (Homo sapiens, UniProt Q92769); experiment: biochemical; format: cell-based
Sequence of Histone deacetylase 2 (Q92769 whole entry): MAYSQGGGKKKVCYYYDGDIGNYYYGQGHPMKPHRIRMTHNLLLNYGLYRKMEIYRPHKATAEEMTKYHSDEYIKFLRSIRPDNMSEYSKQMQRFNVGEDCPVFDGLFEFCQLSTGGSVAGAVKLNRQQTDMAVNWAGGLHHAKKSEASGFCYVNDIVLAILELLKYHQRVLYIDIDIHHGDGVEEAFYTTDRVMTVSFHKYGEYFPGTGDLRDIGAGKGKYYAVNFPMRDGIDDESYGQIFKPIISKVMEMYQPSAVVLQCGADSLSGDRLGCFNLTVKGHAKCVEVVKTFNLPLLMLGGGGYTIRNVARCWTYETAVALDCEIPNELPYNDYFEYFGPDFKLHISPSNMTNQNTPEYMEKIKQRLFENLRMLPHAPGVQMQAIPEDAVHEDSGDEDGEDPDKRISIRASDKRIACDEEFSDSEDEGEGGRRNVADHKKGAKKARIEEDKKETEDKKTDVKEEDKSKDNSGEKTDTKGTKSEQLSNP
Description: Inhibition of recombinant human His6/GST-tagged HDAC2 expressed in baculovirus infected High5 insect cells using Ac-Lys-Tyr-Lys(epsilon-acetyl)-AMC as susbtrate after 24 hrs by fluorescence based assay

[38] = cynomolgus monkey, hepatocytes, 3 h, 3 µM; remark: listed apart in the source
[39] = target: Polyamine deacetylase HDAC10 (Homo sapiens, UniProt Q969S8); experiment: biochemical; format: cell-based
Description: Inhibition of recombinant human His6/GST-tagged HDAC10 expressed in baculovirus infected High5 insect cells using Ac-Lys-Tyr-Lys(epsilon-acetyl)-AMC as susbtrate after 24 hrs by fluorescence based assay

T47D = experiment: cells; format: functional, cell-based; settings: Homo sapiens, 72 h
Description: Antiproliferative activity against human T47D cells assessed as reduction in cell growth after 72 hrs

[40] = rat, hepatocytes, 3 h, 3 µM
[41] = mouse, in vivo, po, 50 mg/kg, 1 h; remark: listed apart in the source
[42] = mouse, in vivo; remark: listed apart in the source
[43] = human, hepatocytes, 3 h, 3 µM; remark: listed apart in the source
in vivo [44] = settings: ICR, mouse, other tissue; remark: listed apart in the source
[45] = dog, hepatocytes, 3 h, 3 µM; remark: listed apart in the source
[46] = rat, hepatocytes, 3 h, 3 µM; remark: listed apart in the source
Histone deacetylase 8 = Histone deacetylase 8 (Homo sapiens, UniProt Q9BY41); experiment: biochemical; format: cell-based
Sequence of Histone deacetylase 8 (Q9BY41 whole entry): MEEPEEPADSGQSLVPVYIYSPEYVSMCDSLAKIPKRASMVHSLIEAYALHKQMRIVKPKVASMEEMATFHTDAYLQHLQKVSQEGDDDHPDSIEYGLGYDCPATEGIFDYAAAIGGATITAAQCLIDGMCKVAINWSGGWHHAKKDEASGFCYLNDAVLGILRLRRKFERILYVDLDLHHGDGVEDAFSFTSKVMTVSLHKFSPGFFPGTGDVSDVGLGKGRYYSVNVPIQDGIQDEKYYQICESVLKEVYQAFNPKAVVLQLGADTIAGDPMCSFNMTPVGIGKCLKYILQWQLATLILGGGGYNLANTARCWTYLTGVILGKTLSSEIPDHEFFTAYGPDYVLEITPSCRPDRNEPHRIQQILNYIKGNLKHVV
Description: Inhibition of recombinant human His6/GST-tagged HDAC8 expressed in baculovirus infected High5 insect cells using Ac-Lys-Tyr-Lys(epsilon-acetyl)-AMC as susbtrate after 24 hrs by fluorescence based assay

in vivo [47] = settings: ICR, mouse, brain
[48] = human, hepatocytes, 3 h, 3 µM; remark: listed apart in the source
Histone deacetylase 7 = Histone deacetylase 7 (Homo sapiens, UniProt Q8WUI4); experiment: biochemical; format: cell-based, Sf9
Sequence of Histone deacetylase 7 (Q8WUI4 whole entry): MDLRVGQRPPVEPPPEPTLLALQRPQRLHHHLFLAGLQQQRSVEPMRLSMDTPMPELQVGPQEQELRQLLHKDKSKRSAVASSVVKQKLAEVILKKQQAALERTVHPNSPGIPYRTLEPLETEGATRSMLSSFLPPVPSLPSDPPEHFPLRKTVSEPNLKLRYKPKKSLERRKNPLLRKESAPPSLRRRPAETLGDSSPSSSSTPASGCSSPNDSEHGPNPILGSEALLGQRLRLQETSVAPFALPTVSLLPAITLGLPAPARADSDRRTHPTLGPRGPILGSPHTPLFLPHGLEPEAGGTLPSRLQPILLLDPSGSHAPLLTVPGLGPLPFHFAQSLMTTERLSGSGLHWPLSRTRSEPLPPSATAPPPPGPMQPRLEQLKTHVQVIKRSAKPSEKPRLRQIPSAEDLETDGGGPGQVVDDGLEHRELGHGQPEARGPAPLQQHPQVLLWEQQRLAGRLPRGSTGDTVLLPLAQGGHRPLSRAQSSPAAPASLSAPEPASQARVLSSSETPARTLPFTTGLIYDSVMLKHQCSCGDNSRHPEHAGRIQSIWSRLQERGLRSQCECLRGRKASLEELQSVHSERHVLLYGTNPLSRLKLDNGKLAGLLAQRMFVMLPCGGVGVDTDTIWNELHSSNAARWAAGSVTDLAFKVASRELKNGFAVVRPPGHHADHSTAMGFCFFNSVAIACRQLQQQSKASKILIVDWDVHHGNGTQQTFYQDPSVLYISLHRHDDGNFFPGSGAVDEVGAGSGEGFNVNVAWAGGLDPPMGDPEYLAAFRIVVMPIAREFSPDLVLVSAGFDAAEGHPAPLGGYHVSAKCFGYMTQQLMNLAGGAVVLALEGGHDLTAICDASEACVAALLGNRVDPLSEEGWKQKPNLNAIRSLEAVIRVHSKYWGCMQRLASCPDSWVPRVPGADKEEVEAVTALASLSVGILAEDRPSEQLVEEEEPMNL

in vivo [49] = settings: ICR, mouse, other tissue; remark: listed apart in the source
[50] = mouse, in vivo, po, 50 mg/kg, 1 h; remark: listed apart in the source
NCI-N87 = experiment: cells; format: functional, cell-based; settings: Homo sapiens, NCI-N87, 72 h
Description: Antiproliferative activity against human NCI-N87 cells assessed as reduction in cell growth after 72 hrs

[51] = mouse, in vivo, iv, 10 mg/kg; remark: listed apart in the source
[52] = mouse, hepatocytes, 3 h, 3 µM; remark: listed apart in the source
[53] = mouse, in vivo, po, 50 mg/kg, 1 h; remark: listed apart in the source
[54] = human, hepatocytes, 3 h, 3 µM; remark: listed apart in the source
[55] = human, hepatocytes, 3 h, 3 µM; remark: listed apart in the source
in vivo [56] = settings: ICR, mouse, po, 5 mg/kg; remark: listed apart in the source
Description: Mean residence time in ICR mouse at 5 mg/kg, po after 1 hr to 24 hrs by LC-MS analysis

[57] = mouse, in vivo; remark: listed apart in the source
[58] = human, hepatocytes, 3 h, 3 µM; remark: listed apart in the source
[59] = mouse, hepatocytes, 3 h, 3 µM; remark: listed apart in the source
in vivo [60] = settings: ICR, mouse, iv, 2 mg/kg; remark: listed apart in the source
in vivo [61] = settings: ICR, mouse, iv, 2 mg/kg; remark: listed apart in the source
[62] = mouse, in vivo; remark: listed apart in the source
[63] = mouse, in vivo, po, 50 mg/kg, 1 h; remark: listed apart in the source
[64] = mouse, in vivo, po, 50 mg/kg, 1 h; remark: listed apart in the source
[65] = cynomolgus monkey, hepatocytes, 3 h, 3 µM; remark: listed apart in the source
in vivo [66] = settings: ICR, mouse, po, 5 mg/kg; remark: listed apart in the source
in vivo [67] = settings: ICR, mouse, po, 5 mg/kg; remark: listed apart in the source
NCI-H1975 = experiment: cells; format: functional, cell-based; settings: Homo sapiens, NCI-H1975, 72 h
Description: Antiproliferative activity against human NCI-H1975 cells assessed as reduction in cell growth after 72 hrs

[68] = rat, hepatocytes, 3 h, 3 µM; remark: listed apart in the source
[69] = dog, hepatocytes, 3 h, 3 µM; remark: listed apart in the source
[70] = mouse, in vivo; remark: listed apart in the source
Histone deacetylase 5 = Histone deacetylase 5 (Homo sapiens, UniProt Q9UQL6); experiment: biochemical; format: cell-based, Sf9
Sequence of Histone deacetylase 5 (Q9UQL6 whole entry): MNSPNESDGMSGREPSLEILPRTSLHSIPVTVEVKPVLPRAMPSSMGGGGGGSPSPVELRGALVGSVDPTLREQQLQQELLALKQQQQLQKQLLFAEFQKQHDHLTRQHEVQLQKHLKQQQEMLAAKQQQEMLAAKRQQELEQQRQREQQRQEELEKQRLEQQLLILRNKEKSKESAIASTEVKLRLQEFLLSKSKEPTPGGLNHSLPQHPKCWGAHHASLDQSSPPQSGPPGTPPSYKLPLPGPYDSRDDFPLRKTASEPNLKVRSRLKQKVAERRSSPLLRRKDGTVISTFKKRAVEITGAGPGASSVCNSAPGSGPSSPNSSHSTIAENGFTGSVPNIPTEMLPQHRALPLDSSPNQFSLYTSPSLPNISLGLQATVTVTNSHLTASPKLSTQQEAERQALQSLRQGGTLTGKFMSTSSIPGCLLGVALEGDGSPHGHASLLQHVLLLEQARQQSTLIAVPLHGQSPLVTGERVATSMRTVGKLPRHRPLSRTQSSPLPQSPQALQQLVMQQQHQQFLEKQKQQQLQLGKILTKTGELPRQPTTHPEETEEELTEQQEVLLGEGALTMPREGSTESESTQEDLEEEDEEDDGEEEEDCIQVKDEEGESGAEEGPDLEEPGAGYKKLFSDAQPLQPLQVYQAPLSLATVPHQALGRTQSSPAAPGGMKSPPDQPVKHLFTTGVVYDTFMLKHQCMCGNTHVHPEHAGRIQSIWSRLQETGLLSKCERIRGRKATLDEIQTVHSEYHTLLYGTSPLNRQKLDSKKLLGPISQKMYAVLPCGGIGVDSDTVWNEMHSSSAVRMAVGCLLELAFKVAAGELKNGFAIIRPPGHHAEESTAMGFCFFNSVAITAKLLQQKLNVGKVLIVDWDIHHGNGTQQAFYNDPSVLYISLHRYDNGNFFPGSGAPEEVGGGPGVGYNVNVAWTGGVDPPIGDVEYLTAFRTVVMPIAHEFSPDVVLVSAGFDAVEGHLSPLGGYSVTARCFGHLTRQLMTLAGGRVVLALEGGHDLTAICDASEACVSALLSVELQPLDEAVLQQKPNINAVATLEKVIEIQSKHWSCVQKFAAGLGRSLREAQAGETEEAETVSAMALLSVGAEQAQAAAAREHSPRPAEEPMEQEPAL
Description: Inhibition of recombinant N-terminal GST-tagged full length human HDAC5 expressed in baculovirus infected Sf9 cells using Ac-Leu-Gly-Lys(Tfa)-AMC as substrate after 24 hrs by fluorescence based assay

in vivo [71] = settings: ICR, mouse, other tissue; remark: listed apart in the source
MDA-MB-231 = experiment: cells; format: functional, cell-based; settings: Homo sapiens, MDA-MB-231, 72 h
Description: Antiproliferative activity against human MDA-MB-231 cells assessed as reduction in cell growth after 72 hrs

[72] = dog, hepatocytes, 3 h, 3 µM; remark: listed apart in the source
[73] = mouse, hepatocytes, 3 h, 3 µM; remark: listed apart in the source
in vivo [74] = settings: ICR, mouse, other tissue; remark: listed apart in the source
[75] = rat, hepatocytes, 3 h, 3 µM; remark: listed apart in the source
[76] = rat, hepatocytes, 3 h, 3 µM; remark: listed apart in the source
[77] = mouse, in vivo, po, 50 mg/kg, 1 h; remark: listed apart in the source
in vivo [78] = settings: ICR, mouse, other tissue; remark: listed apart in the source
in vivo [79] = settings: ICR, mouse, po, 5 mg/kg; remark: listed apart in the source
[80] = cynomolgus monkey, hepatocytes, 3 h, 3 µM; remark: listed apart in the source
[81] = rat, hepatocytes, 3 h, 3 µM; remark: listed apart in the source
Histone deacetylase 4 = Histone deacetylase 4 (Homo sapiens, UniProt P56524); experiment: biochemical; format: cell-based
Description: Inhibition of recombinant human His6/GST-tagged HDAC4 expressed in baculovirus infected High5 insect cells using Ac-Leu-Gly-Lys(Tfa)-AMC as substrate after 24 hrs by fluorescence based assay

[82] = mouse, in vivo, po, 50 mg/kg, 1 h; remark: listed apart in the source
in vivo [83] = settings: ICR, mouse, po, 5 mg/kg; remark: listed apart in the source
[84] = dog, hepatocytes, 3 h, 3 µM; remark: listed apart in the source

Sequence of Histone deacetylase 1 (Q13547 whole entry): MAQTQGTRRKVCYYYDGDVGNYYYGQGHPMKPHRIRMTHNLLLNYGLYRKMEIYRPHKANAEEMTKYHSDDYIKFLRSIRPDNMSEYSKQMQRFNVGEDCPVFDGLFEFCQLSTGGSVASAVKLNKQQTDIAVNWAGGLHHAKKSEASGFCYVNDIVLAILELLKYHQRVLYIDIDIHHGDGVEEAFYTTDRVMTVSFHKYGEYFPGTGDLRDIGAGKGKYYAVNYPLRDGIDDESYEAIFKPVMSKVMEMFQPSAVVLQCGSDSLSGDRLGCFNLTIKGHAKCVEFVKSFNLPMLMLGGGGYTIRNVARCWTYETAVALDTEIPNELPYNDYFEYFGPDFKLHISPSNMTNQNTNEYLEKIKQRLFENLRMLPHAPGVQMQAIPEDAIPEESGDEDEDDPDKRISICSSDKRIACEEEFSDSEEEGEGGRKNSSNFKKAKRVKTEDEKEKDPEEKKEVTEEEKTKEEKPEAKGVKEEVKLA
Sequence of NAD-dependent protein deacetylase sirtuin-3, mitochondrial (Q9NTG7 whole entry): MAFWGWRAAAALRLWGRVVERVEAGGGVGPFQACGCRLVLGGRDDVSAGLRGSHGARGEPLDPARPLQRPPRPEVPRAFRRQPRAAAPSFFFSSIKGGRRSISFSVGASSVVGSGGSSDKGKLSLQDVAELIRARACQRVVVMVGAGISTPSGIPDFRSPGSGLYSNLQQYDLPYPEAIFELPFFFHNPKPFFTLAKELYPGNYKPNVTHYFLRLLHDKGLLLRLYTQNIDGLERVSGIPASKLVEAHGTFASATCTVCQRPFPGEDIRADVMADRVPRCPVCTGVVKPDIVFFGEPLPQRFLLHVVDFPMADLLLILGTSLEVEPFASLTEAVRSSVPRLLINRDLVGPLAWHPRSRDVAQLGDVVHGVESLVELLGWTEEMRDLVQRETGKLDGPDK
Sequence of NAD-dependent protein deacetylase sirtuin-2 (Q8IXJ6 whole entry): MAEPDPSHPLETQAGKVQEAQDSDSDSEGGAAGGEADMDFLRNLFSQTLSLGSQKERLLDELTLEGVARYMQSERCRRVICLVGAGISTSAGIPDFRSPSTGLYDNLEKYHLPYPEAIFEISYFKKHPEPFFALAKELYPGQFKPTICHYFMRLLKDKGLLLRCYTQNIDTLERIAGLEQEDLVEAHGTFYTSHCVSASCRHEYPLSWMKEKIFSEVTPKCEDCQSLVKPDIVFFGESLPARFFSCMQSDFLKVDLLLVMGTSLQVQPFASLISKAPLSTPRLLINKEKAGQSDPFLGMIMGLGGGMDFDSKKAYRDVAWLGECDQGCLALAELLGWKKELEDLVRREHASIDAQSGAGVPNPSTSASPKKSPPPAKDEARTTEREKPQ

## CC(C)(NC(=O)c1nc(-c2nccs2)sc1C1CC1)c1ccc(C(=O)NO)cc1
Histone deacetylase 1
  IC50: 0.163 µM

## CC(C)Cc1sc(-c2nccs2)nc1C(=O)Nc1ccc(/C=C/C(=O)NO)cc1
Histone deacetylase 1
  IC50: 0.66 µM

## O=C(NO)c1ccc(C2(NC(=O)c3nc(-c4nccs4)sc3C3CC3)CC2)cc1
Histone deacetylase 1
  IC50: 0.0223 µM

## Cc1[nH]c2ccccc2c1CCNCc1ccc(/C=C/C(=O)NO)cc1 [PANOBINOSTAT]
[1]
  IC50: > 20 µM
HT-29 [2]
  T/C: 93.85%
[3]
  IC50: > 20 µM
MCF7
  IC50: 0.009 µM
[4]
  IC50: > 20 µM

## C[C@H](NC(=O)c1nc(-c2ncc(-c3ccccc3)s2)sc1C1CC1)c1ccc(C(=O)NO)cc1
[5]
  Drug uptake: Active
[6]
  AUC: 6079 ng·h/g
[7]
  Drug metabolism: Metabolite_Detected
Bel-7402
  IC50: 0.0808 µM
In vivo [8]
  half-life at 24 h: 4.23 h
[9]
  Drug uptake: Active
[10]
  AUC: 105642 ng·h/g
Histone deacetylase 9
  IC50: > 20 µM
[11]
  Drug metabolism: Metabolite_Detected
In vivo [12]
  Kp: 8.66
[13]
  AUC: 1472 ng·h/g
[14]
  Drug metabolism: Metabolite_Detected
[1]
  IC50: > 20 µM
[15]
  Drug metabolism: Metabolite_Notdetected
HT-29 [2]
  T/C: 59.72%
In vivo [16]
  Kp: 4.38
In vivo [17]
  AUC(0-t): 924 ng·h/mL
[18]
  Drug metabolism: Metabolite_Detected
HT-29 [19]
  IC50: 0.166 µM
[20]
  Drug uptake: Active
In vivo [21]
  Kp: 2.46
[22]
  AUC: 8795 ng·h/g
In vivo [23]
  AUC(0-t): 1080 ng·h/mL
EBC-1
  IC50: 0.11 µM
[24]
  Drug uptake: Active
[25]
  AUC: 698 ng·h/g
[26]
  Drug metabolism: Metabolite_Detected
In vivo [27]
  Kp: 3.28
HT-29 [28]
  T/C: 37.56%
[29]
  AUC: 3438 ng·h/g
[30]
  Drug uptake: Active
Histone deacetylase 11
  IC50: 0.0778 µM
[31]
  Drug metabolism: Metabolite_Detected
[32]
  AUC: 2622 ng·h/g
In vivo [33]
  MRT: 10.4 h
[34]
  Drug metabolism: Metabolite_Detected
[35]
  Drug metabolism: Metabolite_Notdetected
HT-29 [36]
  T/C: 60.58%
[37]
  Drug uptake: Active
Histone deacetylase 2
  IC50: 0.0133 µM
[38]
  Drug metabolism: Metabolite_Notdetected
[39]
  IC50: 0.00198 µM
T47D
  IC50: 0.0408 µM
[40]
  Drug metabolism: Metabolite_Detected
[41]
  Drug uptake: Active
[3]
  IC50: > 20 µM
[42]
  AUC: 599 ng·h/g
[43]
  Drug metabolism: Metabolite_Detected
In vivo [44]
  Kp: 5.74
[45]
  Drug metabolism: Metabolite_Notdetected
[46]
  Drug metabolism: Metabolite_Notdetected
Histone deacetylase 8
  IC50: 0.0168 µM
In vivo [47]
  Kp: 1.17
[48]
  Drug metabolism: Metabolite_Detected
Histone deacetylase 7
  IC50: > 20 µM
In vivo [49]
  Kp: 7.84
[50]
  Drug uptake: Active
NCI-N87
  IC50: 0.0283 µM
[51]
  Drug uptake: Active
[52]
  Drug metabolism: Metabolite_Detected
[53]
  Drug uptake: Active
[54]
  Drug metabolism: Metabolite_Detected
[55]
  Drug metabolism: Metabolite_Detected
In vivo [56]
  MRT: 5.22 h
[57]
  AUC: 4692 ng·h/g
[58]
  Drug metabolism: Metabolite_Notdetected
[59]
  Drug metabolism: Metabolite_Detected
In vivo [60]
  half-life: 8.67 h
In vivo [61]
  AUC(0-inf): 1250 ng·h/mL
MCF7
  IC50: 0.0585 µM
[62]
  AUC: 1964 ng·h/g
[63]
  Drug uptake: Active
[64]
  Drug uptake: Active
[65]
  Drug metabolism: Metabolite_Notdetected
In vivo [66]
  bioavailability: 34 to 34.4%
In vivo [67]
  AUC(0-inf): 944 ng·h/mL
NCI-H1975
  IC50: 0.0664 µM
[68]
  Drug metabolism: Metabolite_Detected
[69]
  Drug metabolism: Metabolite_Detected
[70]
  AUC: 5185 ng·h/g
Histone deacetylase 5
  IC50: 16.7 µM
In vivo [71]
  Kp: 176
MDA-MB-231
  IC50: 0.0766 µM
[72]
  Drug metabolism: Metabolite_Detected
[73]
  Drug metabolism: Metabolite_Notdetected
In vivo [74]
  Kp: 10.2
[75]
  Drug metabolism: Metabolite_Detected
[76]
  Drug metabolism: Metabolite_Detected
[77]
  Drug uptake: Active
In vivo [78]
  Kp: 14.7
In vivo [79]
  Cmax: 138 ng/mL
[80]
  Drug metabolism: Metabolite_Detected
[4]
  IC50: > 20 µM
[81]
  Drug metabolism: Metabolite_Notdetected
Histone deacetylase 4
  IC50: > 20 µM
[82]
  Drug uptake: Active
In vivo [83]
  Tmax at 24 h: 0.67 h
[84]
  Drug metabolism: Metabolite_Notdetected
